The structures appear in SMILES notation.

One assay concerns Respiratory syncytial virus (RSV) strain A2. Description: Hep-2 RSV2 384-well assay (EC50-HEP2-384). The note with it: HEp-2 cells, RSV A2, MOI=4, 4 days, Table 3. Format: cell-based.
`CCC(CC)COC(=O)[C@H](C)N[P@@](=O)(OC[C@H]1O[C@@](C#N)(c2ccc3c(N)ncnn23)[C@H](OC(C)=O)[C@@H]1OC(C)=O)Oc1cccc2c1CCCC2` [Example 147, (2R,3R,4R,5R)-2-(4-aminopyrrolo[2,1-f][1,2,4]triazin-7-yl)-2-cyano-5-((((R)—(((S)-1-(2-ethylbutoxy)-1-oxopropan-2-yl)amino)((5,6,7,8-tetrahydronaphthalen-1-yl)oxy)phosphoryl)oxy)methyl)tetrahydrofuran-3,4-diyl Diacetate] registered an EC50 of 334 nM.
Turning to `CCC(CC)COC(=O)[C@H](C)N[P@](=O)(OC[C@H]1O[C@@](C#N)(c2ccc3c(N)ncnn23)[C@H](OC(C)=O)[C@@H]1OC(C)=O)Oc1cccc2c1CCCC2` [Example 143, (2R,3R,4R,5R)-2-(4-aminopyrrolo[2,1-f][1,2,4]triazin-7-yl)-2-cyano-5-((((S)—(((S)-1-(2-ethylbutoxy)-1-oxopropan-2-yl)amino)((5,6,7,8-tetrahydronaphthalen-1-yl)oxy)phosphoryl)oxy)methyl)tetrahydrofuran-3,4-diyl Diacetate], the EC50 is 737 nM.

The assay is the same for the next values; noted with them: human respiratory syncytial virus, HEp-2, 96 h, HEp-2 cells, RSV A2, MOI=4, 4 days, Table 3.
In the case of `CC(C)C(=O)O[C@H]1[C@@H](OC(=O)C(C)C)[C@](C#N)(c2ccc3c(N)ncnn23)O[C@@H]1COP(=O)(N[C@@H](C)CC(=O)OC1CCC1)Oc1ccc(C(C)(C)C)cc1` (stereo partly drawn) [Example 167, (2R,3R,4R,5R)-2-(4-aminopyrrolo[2,1-f][1,2,4]triazin-7-yl)-5-((((4-(tert-butyl)phenoxy)(((S)-4-cyclobutoxy-4-oxobutan-2-yl)amino)phosphoryl)oxy)methyl)-2-cyanotetrahydrofuran-3,4-diyl bis(2-methylpropanoate)], the EC50 was found to be 5000 nM.
Compound `CCC(CC)COC(=O)[C@H](C)NP(=O)(OC[C@H]1O[C@@](C#N)(c2ccc3c(N)ncnn23)[C@H](OC(=O)C(C)C)[C@@H]1OC(=O)C(C)C)Oc1ccc2c(c1)CCCC2` (stereo partly drawn) [Example 132, (2R,3R,4R,5R)-2-(4-aminopyrrolo[2,1-f][1,2,4]triazin-7-yl)-2-cyano-5-((((((S)-1-(2-ethylbutoxy)-1-oxopropan-2-yl)amino)((5,6,7,8-tetrahydronaphthalen-2-yl)oxy)phosphoryl)oxy)methyl) tetrahydrofuran-3,4-diyl bis(2-methylpropanoate)] displayed a concentration for a half-maximal effect (EC50) of 126 nM.
Still for that read-out and setting: as for `CC(C)C(=O)O[C@H]1[C@@H](OC(=O)C(C)C)[C@](C#N)(c2ccc3c(N)ncnn23)O[C@@H]1COP(=O)(N[C@@H](C)C(=O)OC1CCCCC1)Oc1ccc(C(C)(C)C)cc1` (stereo partly drawn) [Example 149, (2R,3R,4R,5R)-2-(4-aminopyrrolo[2,1-f][1,2,4]triazin-7-yl)-5-((((4-(tert-butyl)phenoxy)(((S)-1-(cyclohexyloxy)-1-oxopropan-2-yl)amino)phosphoryl)oxy)methyl)-2-cyanotetrahydrofuran-3,4-diyl bis(2-methylpropanoate)], the figure is 99.4 nM.
`COC(C)COC(=O)[C@H](C)NP(=O)(OC[C@H]1O[C@@](C#N)(c2ccc3c(N)ncnn23)[C@H](O)[C@@H]1O)Oc1ccc(C(C)(C)C)cc1` (stereo partly drawn) [Example 155, 2-methoxypropyl ((((2R,3S,4R,5R)-5-(4-aminopyrrolo[2,1-f][1,2,4]triazin-7-yl)-5-cyano-3,4-dihydroxytetrahydrofuran-2-yl)methoxy)(4-(tert-butyl)phenoxy)phosphoryl)-L-alaninate] had an EC50 of 683 nM.
Same read-out and setting: as for `C[C@H](NP(=O)(OC[C@H]1O[C@@](C#N)(c2ccc3c(N)ncnn23)[C@H](O)[C@@H]1O)Oc1ccc(C(C)(C)C)cc1)C(=O)O[C@H]1CCOC1` (stereo partly drawn) [Example 34, (S)-tetrahydrofuran-3-yl ((((2R,3S,4R,5R)-5-(4-aminopyrrolo[2,1-f][1,2,4]triazin-7-yl)-5-cyano-3,4-dihydroxytetrahydrofuran-2-yl)methoxy)(4-(tert-butyl)phenoxy)phosphoryl)-L-alaninate], the figure is 1500 nM.

A word on the EC50: it is the midpoint of the concentration-response curve.
